{
  "source": "paper PMC5068912",
  "about": "(Psychopharmacology, 2016)",
  "key": {"[1]": {"test_system": "mice", "settings": "10 mg/kg ip; ref Ramabadran 1982; cited from earlier work"}, "[2]": {"test_system": "DOR", "settings": "mouse, in vivo"}, "[3]": {"test_system": "C57BL/6 wild-type mice", "settings": "mouse, in vivo"}, "[4]": {"test_system": "wild type littermates"}, "[5]": {"test_system": "MOR knock-out mice", "settings": "ip, up to 32 mg/kg, n=6"}, "[6]": {"test_system": "C57BL/6 wild-type mice", "settings": "for ED50, WWTW antinociception: mean ± SEM"}, "[7]": {"test_system": "C57BL/6 wild-type mice", "settings": "mouse, in vivo", "remark": "listed apart in the source"}, "[8]": {"test_system": "MOR", "settings": "pH 7.4"}, "[9]": {"test_system": "MOR", "settings": "cited from earlier work"}, "[10]": {"test_system": "DOR", "settings": "in vitro; ref Mosberg et al. 2014; cited from earlier work"}, "[11]": {"test_system": "MOR", "settings": "in vitro; ref Mosberg et al. 2014; cited from earlier work"}, "[12]": {"test_system": "DOR", "settings": "in vitro; ref Mosberg et al. 2014; cited from earlier work", "remark": "listed apart in the source"}, "[13]": {"test_system": "mice", "settings": "mouse, in vivo; cited from earlier work"}},
  "note": "Structures can show the parent of a compound that is named as a salt. Where two headings read alike, the source gives them in different places.",
  "data": [
    {"compound": "C[N+]1(CC2CC2)CC[C@]23c4c5ccc(O)c4O[C@H]2C(=O)CC[C@@]3(O)[C@H]1C5", "note": "(some centres unmarked) [MNTX, methylnaltrexone HBr]", "values": [
      {"measurement": "block of opioid effects", "setting": "[1]", "value": "block peripheral, but not central, effects of opioids"}
    ]},
    {"compound": "Oc1ccc2c3c1O[C@H]1c4[nH]c5ccccc5c4C[C@@]4(O)[C@@H](C2)N(CC2CC2)CC[C@]314", "note": "[NTI, Naltrindole HCl, reference compound]", "values": [
      {"measurement": "SNC80-induced decrease in immobility after pretreatment", "setting": "[2]", "value": "blocked"},
      {"measurement": "immobility in NTI pretreated mice vs vehicle treated mice", "setting": "[2]", "value": "not statistically different from immobility in vehicle treated mice"}
    ]},
    {"compound": "Dmt-c(SEtS)[DCys-Aic-DPen]-Ser(β-glucose)-NH2 [VRP26]", "values": [
      {"measurement": "dose producing maximal antinociceptive effect", "setting": "[3]", "value": 10, "unit": "mg/kg"},
      {"measurement": "lowest, maximally-effective, acute dose in the WWTW assay", "setting": "[3]", "value": 10, "unit": "mg/kg"},
      {"measurement": "ED50, WWTW antinociception", "setting": "[3]; ip", "value": "5.44 ± 0.10", "unit": "mg/kg"},
      {"measurement": "ED50, WWTW antinociception", "setting": "[3]; sc", "value": "5.08 ± 0.23", "unit": "mg/kg"},
      {"measurement": "tail withdrawal latency, wild type vs MOR knock-out littermates", "setting": "[4]; 10 mg/kg ip, t(10) = 9.161, p < 0.0001", "value": "significantly increased withdrawal latency in wild type mice as compared with MOR knock-out littermates"},
      {"measurement": "dose producing maximal antinociceptive effect", "setting": "[4]; ip, wild type littermates", "value": 10, "unit": "mg/kg"},
      {"measurement": "ED50, WWTW antinociception", "setting": "[4]; ip, wild type littermates of MOR knock-out mice, mean ± SEM, n=6", "value": "4.77 ± 0.32", "unit": "mg/kg"},
      {"measurement": "increase in tail withdrawal latency", "setting": "[5]", "value": "failed to produce a significant increase in tail withdrawal latency up to 32 mg/kg"},
      {"measurement": "effect of pretreatment (vehicle vs MNTX) on VRP26 antinociception", "setting": "[6]; 10 mg/kg MNTX ip, two way ANOVA, effect of dose F(4, 40) = 393.6, p < 0.0001", "value": "no effect of pretreatment (vehicle vs MNTX)"},
      {"measurement": "ED50, WWTW antinociception", "setting": "[6]; VRP26 ip, pretreated with 10 mg/kg MNTX ip, n=6", "value": "4.73 ± 0.13", "unit": "mg/kg"},
      {"measurement": "dose-dependence of tail withdrawal latency increase", "setting": "[6]; VRP26 ip, vehicle and 10 mg/kg MNTX pretreated mice, n=6", "value": "dose-dependent increases in tail withdrawal latency"},
      {"measurement": "ED50, WWTW antinociception", "setting": "[6]; VRP26 ip, vehicle pretreated mice, n=6", "value": "4.73 ± 0.22", "unit": "mg/kg"},
      {"measurement": "dose producing maximal response", "setting": "[6]; ip, both vehicle and MNTX pretreated mice", "value": 10, "unit": "mg/kg"},
      {"measurement": "ED50 of VRP26, day 1, saline treated group", "setting": "[7]", "value": "5.35 ± 0.17", "unit": "mg/kg"},
      {"measurement": "ED50 of VRP26, day 8, saline treated group", "setting": "[7]", "value": "5.07 ± 0.23", "unit": "mg/kg"},
      {"measurement": "shift in the dose response curve after chronic treatment", "setting": "[7]", "value": "no shift in the dose response curve"},
      {"measurement": "SNC80-induced decrease in immobility after pretreatment", "setting": "[2]", "value": "partially blocked SNC80-induced decreases in immobility"},
      {"measurement": "immobility, compound alone vs control", "setting": "[2]; sc, 10 mg/kg", "value": "no effect on immobility as compared with control"},
      {"measurement": "relative efficacy at MOR", "setting": "[8]", "value": 0.28},
      {"measurement": "affinity balance between MOR and DOR", "setting": "[9]; discussion statement, source not given there", "value": "balanced affinity between MOR and DOR"},
      {"measurement": "affinity for MOR", "setting": "[9]; in vitro, ref Mosberg et al. 2014", "value": "low nanomolar affinity"},
      {"measurement": "affinity for DOR", "setting": "[10]", "value": "low nanomolar affinity"},
      {"measurement": "agonist activity at MOR", "setting": "[11]", "value": "agonist activity at MOR similar to morphine"},
      {"measurement": "antagonism at DOR", "setting": "[12]", "value": "antagonism at DOR"},
      {"measurement": "acute tolerance", "setting": "[13]", "value": "does not produce acute tolerance"},
      {"measurement": "antinociception, WWTW", "setting": "[13]", "value": "dose-dependent antinociception"}
    ]}
  ]
}
